Reference: patent US8247211B2, “Glycopeptide antibiotics” (American Cyanamid Company, priority 2001, dated 2012)
Values after ≈ are worked out from the molar mass of the structure shown.

Experiments:
Assay in all cases: In vitro antibacterial evaluation: minimum inhibitory concentration (MIC), broth dilution method
Assay type in all cases: cell-based
Enterococcus sp. = system: Enterococcus sp.
Summary of the method: (§1)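 Inoculum: 5×10^5 CFU/mL. Range: 64-0.06 μg/mL. Medium: Muller-Hinton II […]; NCCLS M7-A2 broth dilution. Endpoint: lowest concentration inhibiting growth. Strains include methicillin-, penicillin- and/or vancomycin-resistant clinical isolates.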

Escherichia coli [1] = system: Escherichia coli
Summary of the method: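 Values are minimum inhibitory concentrations, meaning the smallest antibiotic concentration that stops growth of the organism. They come from broth dilution in Muller-Hinton II […] per NCCLS guidance (M7-A2), using 5×10^5 CFU/mL and concentrations from 64 to 0.06 μg/mL.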

Staphylococcus sp. = details: 18 hours at 35° C.
Summary of the method: as §1

Escherichia coli [2] = system: Escherichia coli; remark: listed apart in the source

CC=C(C)C(=O)OC1C(CO)OC(OC2C(CO)OC(Oc3ccc(CC4NC(=O)C(C(C)c5ccccc5)NC(=O)CNC(=O)C(CO)NC(=O)C(C(O)C5CNC(=N)N5C5OC(CO)C(O)C(O)C5O)NC(=O)C(C(O)C5CNC(=N)N5)NC4=O)cc3)C(O)C2O)C(O)C1O (stereo not drawn) [Example 278b, Cyclo[glycyl-β-methylphenylalanyl-O-[4-O-[4-O-(2-methylbut-2-enoyl)hexopyranosyl]-hexopyranosyl]tyrosyl-3-(2-iminoimidazolidin-4-yl)seryl-3-(3-hexopyranosyl-2-imino-imidazolidin-4-yl)serylseryl]]
MIC Enterococcus avium (GC 4558) (Enterococcus sp.): 32 µg/mL (≈ 23.2 µM) | MIC Enterococcus faecalis (ATCC 29212) (Enterococcus sp.): 32 µg/mL (≈ 23.2 µM) | MIC Enterococcus faecalis (GC 4553) (Enterococcus sp.): 32 µg/mL (≈ 23.2 µM) | MIC Enterococcus faecalis (GC 4554) (Enterococcus sp.): 32 µg/mL (≈ 23.2 µM) | MIC Enterococcus faecalis (GC 6189) (Enterococcus sp.; Enterococcus faecalis (GC 6189)): 32 µg/mL (≈ 23.2 µM) | MIC Enterococcus faecium (GC 2243) (Enterococcus sp.): 32 µg/mL (≈ 23.2 µM) | MIC Enterococcus faecium (GC 4556) (Enterococcus sp.): 32 µg/mL (≈ 23.2 µM) | MIC Enterococcus faecium (GC 4557) (Enterococcus sp.): 8 µg/mL (≈ 5.81 µM) | MIC Escherichia coli (GC 4559) (Escherichia coli [1]): >64 µg/mL | MIC Escherichia coli (GC 4560) (Escherichia coli [1]): 4 µg/mL (≈ 2.9 µM) | MIC Coagulase Negative Staphylococcus (GC 4547) (Staphylococcus sp.): 4 µg/mL (≈ 2.9 µM) | MIC Coagulase Negative Staphylococcus (GC 4547) (Staphylococcus sp.; broth dilution): 4 µg/mL (≈ 2.9 µM) | MIC Coagulase Negative Staphylococcus (GC 4548) (Staphylococcus sp.): 4 µg/mL (≈ 2.9 µM) | MIC Coagulase Negative Staphylococcus (GC 4548) (Staphylococcus sp.; broth dilution): 4 µg/mL (≈ 2.9 µM) | MIC Coagulase Negative Staphylococcus (GC 4549) (Staphylococcus sp.): 2 µg/mL (≈ 1.45 µM) | MIC Coagulase Negative Staphylococcus (GC 4549) (Staphylococcus sp.; broth dilution): 2 µg/mL (≈ 1.45 µM) | MIC Coagulase Negative Staphylococcus (GC 4551) (Staphylococcus sp.): 8 µg/mL (≈ 5.81 µM) | MIC Coagulase Negative Staphylococcus (GC 4551) (Staphylococcus sp.; broth dilution): 8 µg/mL (≈ 5.81 µM) | MIC Coagulase Negative Staphylococcus (GC 6257) (Staphylococcus sp.): 2 µg/mL (≈ 1.45 µM) | MIC Coagulase Negative Staphylococcus (GC 6257) (Staphylococcus sp.; broth dilution): 2 µg/mL (≈ 1.45 µM) | MIC Staphylococcus aureus (ATCC 29213) (Staphylococcus sp.): 8 µg/mL (≈ 5.81 µM) | MIC Staphylococcus aureus (ATCC 29213) (Staphylococcus sp.; broth dilution): 8 µg/mL (≈ 5.81 µM) | MIC Staphylococcus aureus (GC 1131) (Staphylococcus sp.): 8 µg/mL (≈ 5.81 µM) | MIC Staphylococcus aureus (GC 1131) (Staphylococcus sp.; broth dilution): 8 µg/mL (≈ 5.81 µM) | MIC Staphylococcus aureus (GC 3051) (Staphylococcus sp.): 4 µg/mL (≈ 2.9 µM) | MIC Staphylococcus aureus (GC 3051) (Staphylococcus sp.; broth dilution): 4 µg/mL (≈ 2.9 µM) | MIC Staphylococcus aureus (GC 3053) (Staphylococcus sp.): 8 µg/mL (≈ 5.81 µM) | MIC Staphylococcus aureus (GC 3053) (Staphylococcus sp.; broth dilution): 8 µg/mL (≈ 5.81 µM) | MIC Staphylococcus aureus (GC 4541) (Staphylococcus sp.): 8 µg/mL (≈ 5.81 µM) | MIC Staphylococcus aureus (GC 4541) (Staphylococcus sp.; broth dilution): 8 µg/mL (≈ 5.81 µM) | MIC Staphylococcus aureus (GC 4542) (Staphylococcus sp.): 8 µg/mL (≈ 5.81 µM) | MIC Staphylococcus aureus (GC 4542) (Staphylococcus sp.; broth dilution): 8 µg/mL (≈ 5.81 µM) | MIC Staphylococcus aureus (GC 4544) (Staphylococcus sp.): 8 µg/mL (≈ 5.81 µM) | MIC Staphylococcus aureus (GC 4544) (Staphylococcus sp.; broth dilution): 8 µg/mL (≈ 5.81 µM) | MIC Staphylococcus aureus (GC 4545) (Staphylococcus sp.): 4 µg/mL (≈ 2.9 µM) | MIC Staphylococcus aureus (GC 4545) (Staphylococcus sp.; broth dilution): 4 µg/mL (≈ 2.9 µM) | MIC Staphylococcus aureus-SMITH (GC 4543) (Staphylococcus sp.): 8 µg/mL (≈ 5.81 µM) | MIC Staphylococcus aureus-SMITH (GC 4543) (Staphylococcus sp.; broth dilution): 8 µg/mL (≈ 5.81 µM) | MIC Staphylococcus haemolyticus (GC 4546) (Staphylococcus sp.): 4 µg/mL (≈ 2.9 µM) | MIC Staphylococcus haemolyticus (GC 4546) (Staphylococcus sp.; broth dilution): 4 µg/mL (≈ 2.9 µM) | MIC Escherichia coli (ATCC 25922) (Escherichia coli [2]): >64 µg/mL

CC(C)CCC(=O)OC1C(OC2C(CO)OC(Oc3ccc(CC4NC(=O)C(C(C)c5ccccc5)NC(=O)CNC(=O)C(CO)NC(=O)C(C(O)C5CNC(=N)N5C5OC(CO)C(O)C(O)C5O)NC(=O)C(C(O)C5CNC(=N)N5)NC4=O)cc3)C(O)C2O)OC(CO)C(O)C1O (stereo not drawn) [Example 270a, Cyclo[glycyl-β-methylphenylalanyl-O-[4-O-[2-O-(4-methylpentanoyl)hexopyranosyl]-hexopyranosyl]tyrosyl-3-(2-iminoimidazolidin-4-yl)seryl-3-(3-hexopyranosyl-2-iminoimidazolidin-4-yl)serylseryl]]
MIC Enterococcus avium (GC 4558) (Enterococcus sp.): 16 µg/mL (≈ 11.5 µM) | MIC Enterococcus faecalis (ATCC 29212) (Enterococcus sp.): 16 µg/mL (≈ 11.5 µM) | MIC Enterococcus faecalis (GC 4553) (Enterococcus sp.): 16 µg/mL (≈ 11.5 µM) | MIC Enterococcus faecalis (GC 4554) (Enterococcus sp.): 32 µg/mL (≈ 23 µM) | MIC Enterococcus faecium (GC 2243) (Enterococcus sp.): 16 µg/mL (≈ 11.5 µM) | MIC Enterococcus faecium (GC 4556) (Enterococcus sp.): 16 µg/mL (≈ 11.5 µM) | MIC Enterococcus faecium (GC 4557) (Enterococcus sp.): 4 µg/mL (≈ 2.87 µM) | MIC Escherichia coli (GC 4559) (Escherichia coli [1]): >64 µg/mL | MIC Escherichia coli (GC 4560) (Escherichia coli [1]): 2 µg/mL (≈ 1.44 µM) | MIC Coagulase Negative Staphylococcus (GC 4547) (Staphylococcus sp.): 2 µg/mL (≈ 1.44 µM) | MIC Coagulase Negative Staphylococcus (GC 4547) (Staphylococcus sp.; broth dilution): 2 µg/mL (≈ 1.44 µM) | MIC Coagulase Negative Staphylococcus (GC 4548) (Staphylococcus sp.): 2 µg/mL (≈ 1.44 µM) | MIC Coagulase Negative Staphylococcus (GC 4548) (Staphylococcus sp.; broth dilution): 2 µg/mL (≈ 1.44 µM) | MIC Coagulase Negative Staphylococcus (GC 4549) (Staphylococcus sp.): 2 µg/mL (≈ 1.44 µM) | MIC Coagulase Negative Staphylococcus (GC 4549) (Staphylococcus sp.; broth dilution): 2 µg/mL (≈ 1.44 µM) | MIC Coagulase Negative Staphylococcus (GC 4551) (Staphylococcus sp.): 4 µg/mL (≈ 2.87 µM) | MIC Coagulase Negative Staphylococcus (GC 4551) (Staphylococcus sp.; broth dilution): 4 µg/mL (≈ 2.87 µM) | MIC Staphylococcus aureus (ATCC 29213) (Staphylococcus sp.): 4 µg/mL (≈ 2.87 µM) | MIC Staphylococcus aureus (ATCC 29213) (Staphylococcus sp.; broth dilution): 4 µg/mL (≈ 2.87 µM) | MIC Staphylococcus aureus (GC 1131) (Staphylococcus sp.): 4 µg/mL (≈ 2.87 µM) | MIC Staphylococcus aureus (GC 1131) (Staphylococcus sp.; broth dilution): 4 µg/mL (≈ 2.87 µM) | MIC Staphylococcus aureus (GC 4541) (Staphylococcus sp.): 4 µg/mL (≈ 2.87 µM) | MIC Staphylococcus aureus (GC 4541) (Staphylococcus sp.; broth dilution): 4 µg/mL (≈ 2.87 µM) | MIC Staphylococcus aureus (GC 4542) (Staphylococcus sp.): 4 µg/mL (≈ 2.87 µM) | MIC Staphylococcus aureus (GC 4542) (Staphylococcus sp.; broth dilution): 4 µg/mL (≈ 2.87 µM) | MIC Staphylococcus aureus (GC 4544) (Staphylococcus sp.): 4 µg/mL (≈ 2.87 µM) | MIC Staphylococcus aureus (GC 4544) (Staphylococcus sp.; broth dilution): 4 µg/mL (≈ 2.87 µM) | MIC Staphylococcus aureus (GC 4545) (Staphylococcus sp.): 4 µg/mL (≈ 2.87 µM) | MIC Staphylococcus aureus (GC 4545) (Staphylococcus sp.; broth dilution): 4 µg/mL (≈ 2.87 µM) | MIC Staphylococcus aureus-SMITH (GC 4543) (Staphylococcus sp.): 4 µg/mL (≈ 2.87 µM) | MIC Staphylococcus aureus-SMITH (GC 4543) (Staphylococcus sp.; broth dilution): 4 µg/mL (≈ 2.87 µM) | MIC Staphylococcus haemolyticus (GC 4546) (Staphylococcus sp.): 2 µg/mL (≈ 1.44 µM) | MIC Staphylococcus haemolyticus (GC 4546) (Staphylococcus sp.; broth dilution): 2 µg/mL (≈ 1.44 µM) | MIC Escherichia coli (ATCC 25922) (Escherichia coli [2]): >64 µg/mL
